Read-outs that look alike come from different tables or passages of the source.
Assays:
[1] = system: Gram negative bacteria; test: MIC on Gram negative bacteria (all strains); assay type: cell-based; conditions: 5 strains
Method: Bacterial suspensions are prepared from an overnight culture in Mueller-Hinton broth and are adjusted, in the same medium, to a final concentration of 5.0×10^4 cells/ml in each well of a 96-well microtiter plate. Substance dilutions (0.3 log) in Mueller-Hinton broth are added to the suspensions in order to have a range of final concentrations from 0.19 to 100 mcg/ml.
Microtiters are then incubated at 37° C. for 18 hours. (See L. D. THRUPP, Susceptibility testing of antibiotics in liquid media, in: Antibiotics in laboratory medicine. V. LORIAN Ed., II edition, 4, 93-150, Williams & Wilkins, Baltimora, Md. 21202 U.S.A.).

[2] = system: Candida strains; test: MIC on Candida strains (all clinical isolates); assay type: cell-based, Candida albicans; conditions: for MIC: Candida clinical isolates, 10 strains
Method: Overnight yeast cultures in Sabouraud broth are appropriately washed and diluted in Yeast Nitrogen Base supplemented with asparagine and glucose (Y.N.B.s.) to yield approximately 5.0×10^4 CFU/ml in microtiter wells. Substance dilutions (0.3 log) in Y.N.B.s. are added to these suspensions to a final concentration range from 0.19 to 100 mcg/ml. Microtiter plates are then incubated at 35° C. for 24-48 hours (See PFALLER M., RINALDI M. G., […] J. M., BARTLETT M. S., BODY B. A., ESPINEL-INGROFF A., FROMTLING R. A., HALL G. S., HUGHES G. E., ODDS F. C., SUGAR A. M., Collaborative investigator of variables in susceptibility testing of yeasts, Ant. Agent and Chemoth., 34, 9:1648-1656, 1990. COOK R., McINTYRE K. A., […] J. M., Effects of incubation temperature, inoculum size, and medium on agreement of macro and microdilution broth susceptibility test, results for yeasts, Ant. Agent and Chemoth., 34, 8:1542-1545, 1990. […] E., PAETZNICK V., BODEY G. P., Fluconazole susceptibility testing of "Candida albicans" microtiter method that is indipendent of inoculum size, temperature, and time of reaching, Ant. Agent and Chemoth., 35, 8:1641-1646, 1991).

[3] = system: Aspergillus fumigatus; test: MIC on filamentous fungi; assay type: cell-based; conditions: ATCC28212; Aspergillus fumigatus ATCC 28212, lab collection; read-out: Minimal Inhibitory Concentration
Method: (§1) The conidia are collected from 72-hour cultures in Sabouraud agar by washing them with Sabouraud broth and 0.5% Tween 80. After a coarse filtration and washing, the resulting suspensions are adjusted to a final concentration of approx. 5.0×10^4 CFU/ml in a microtiter plate. The substances (0.3 log dilutions in Y.N.B.s.) are added to the fungal suspensions in order to generate a range of final concentrations from 0.19 to 100 mcg/ml. The microtiter plates are then incubated at 35° C. for 48-72 hours.

[4] = system: Aspergillus niger; test: MIC on filamentous fungi; assay type: cell-based; conditions: ATCC16404; Aspergillus niger ATCC 16404, lab collection; read-out: Minimal Inhibitory Concentration
Method: as §1

[5] = system: Fusarium sp.; test: MIC on filamentous fungi; assay type: cell-based; conditions: Fusarium sp. F 77, lab collection; read-out: Minimal Inhibitory Concentration
Method: as §1

[6] = system: Mucor mucedo; test: MIC on filamentous fungi; assay type: cell-based; conditions: ATCC7941; Mucor mucedo ATCC 7941, lab collection; read-out: Minimal Inhibitory Concentration
Method: as §1

[7] = system: Penicillium sp.; test: MIC on filamentous fungi; assay type: cell-based; conditions: Penicillium sp. 1302, lab collection; read-out: Minimal Inhibitory Concentration
Method: as §1

[8] = system: Epidermoph. floccosum; test: MIC on dermatophytes; assay type: cell-based; conditions: read-out: Minimal Inhibitory Concentration
Method: (§2) Mycelium fragments, micro and macroaleuriospores are harvested from 7-day fungal cultures grown at 30 ° C. in Potato Dextrose agar by washing them with Sabouraud broth and 0.5% Tween 80. After a coarse filtration and washing, the fungal suspension is resuspended in Yeast Nitrogen Base supplemented with asparagine and glucose (YNBs) to yield a final concentration of 1.0×10^5 infective units/ml in a microtiter plate. The substances (0.3 log dilutions in Y.N.B.s.) are added to the fungal suspensions in order to generate a range of final concentrations from 0.19 to 100 mcg/ml. The microtiter plates are then incubated at 30° C. for 96-120 hours.

[9] = system: Microsporum canis; test: MIC on dermatophytes; assay type: cell-based; conditions: read-out: Minimal Inhibitory Concentration
Method: as §2

[10] = system: Tr. mentagrophytes; test: MIC on dermatophytes; assay type: cell-based; conditions: Trichophyton mentagrophytes, read-out: Minimal Inhibitory Concentration
Method: as §2

[11] = system: Tr. quinckeanum; test: MIC on dermatophytes; assay type: cell-based; conditions: Tr. quinckeanum NCPF 309, lab collection; read-out: Minimal Inhibitory Concentration
Method: as §2

[12] = system: Tr. rubrum; test: MIC on dermatophytes; assay type: cell-based; conditions: Trichophyton rubrum, read-out: Minimal Inhibitory Concentration
Method: as §2

[13] = Epidermoph. floccosum IDI D 0011, clinical isolate (epidermophytosis, foot interdigital)
[14] = Epidermoph. floccosum SG 3 III, clinical isolate
[15] = Epidermoph. floccosum SG 6 II, clinical isolate (Tinea pedis)
[16] = Microsporum canis IDI D 0238, clinical isolate (tricophytosis, right arm; prior Nerisona)
[17] = Microsporum canis IDI D 1011, clinical isolate (eczema, neck; prior Gentalyn and cortisone)
[18] = Microsporum canis IDI D 1123, clinical isolate (epidermophytosis, back; prior Gentalyn)
[19] = Microsporum canis IMM 3868, lab collection
[20] = Tr. mentagrophytes IDI D 1027, clinical isolate (impetiginous eczema, chin)
[21] = Tr. mentagrophytes IDI D 1049, clinical isolate
[22] = Tr. mentagrophytes IDI D 1101, clinical isolate (epidermatomycosis, face)
[23] = Tr. mentagrophytes SG 3 I, clinical isolate (Tinea pedis)
[24] = Tr. mentagrophytes SG 4 II, clinical isolate (Tinea cruris)
[25] = Tr. mentagrophytes SG 5 III, clinical isolate (Tinea pedis)
[26] = Tr. mentagrophytes SG 8 II, clinical isolate (Tinea cruris)
[27] = Tr. rubrum IDI D 0222, clinical isolate (onychomycosis, left and right big toes)
[28] = Tr. rubrum IDI D 0252, clinical isolate (impetigo, left arm; prior Rifocin)
[29] = Tr. rubrum IDI D 0261, clinical isolate (dyshidrotic eczema, right foot)
[30] = Tr. rubrum IDI D 1017, clinical isolate (onychomycosis, right big toe; prior Azolmen)
[31] = Tr. rubrum IDI D 1150, clinical isolate (epidermophytosis; prior Gentalyn)
[32] = Tr. rubrum IDI D 1155, clinical isolate
[33] = Tr. rubrum SG 13 III, clinical isolate (Tinea pedis)

Row | Compound | MIC ([1]; clinical isolates) [µg/mL] | MIC ([1]; lab collection) [µg/mL] | MIC [2] [µg/mL] | MIC [3] [µg/mL] | MIC [4] [µg/mL] | MIC [5] [µg/mL] | MIC [6] [µg/mL] | MIC [7] [µg/mL] | MIC [8, 13] [µg/mL] | MIC [8, 14] [µg/mL] | MIC [8, 15] [µg/mL] | MIC [9, 16] [µg/mL] | MIC [9, 17] [µg/mL] | MIC [9, 18] [µg/mL] | MIC [9, 19] [µg/mL] | MIC [10, 20] [µg/mL] | MIC [10, 21] [µg/mL] | MIC [10, 22] [µg/mL] | MIC [10, 23] [µg/mL] | MIC [10, 24] [µg/mL] | further results
1 | CCCCCCCCCCCOC(=O)C[C@H](C[N+](C)(C)C)OC(=O)CC(C)C [ST 1103, isovaleryl L-carnitine undecyl ester methanesulfonate, reference compound] | 35 | 27.5 | 4.68 | 12.5 | 12.5 | 6.25 | 50 | 12.5 | 12.5 | 25 | 12.5 | 25 | 12.5 | 12.5 | 12.5 | 12.5 | 12.5 | 12.5 | 12.5 | 12.5 | MIC [10, 25]: 12.5 µg/mL; MIC [10, 26]: 12.5 µg/mL; MIC [11]: 6.25 µg/mL; MIC [12, 27]: 12.5 µg/mL; MIC [12, 28]: 25 µg/mL; MIC [12, 29]: 12.5 µg/mL; MIC [12, 30]: 12.5 µg/mL; MIC [12, 31]: 12.5 µg/mL; MIC [12, 32]: 3.12 µg/mL; MIC [12, 33]: 12.5 µg/mL
2 | CCCCCCCCCCC(=O)O[C@H](CC(=O)OCc1ccc(COC(=O)C[C@H](C[N+](C)(C)C)OC(=O)CCCCCCCCCC)cc1)C[N+](C)(C)C [ST 1226, bis(undecanoyl L-carnitine chloride)p-xylilene diester] | 35 | 26.2 | 2.49 | 6.25 | 6.25 | 3.12 | 25 | 1.56 | 12.5 | 6.25 | 6.25 | 12.5 | 3.12 | 1.56 | 1.56 | 3.12 | 1.56 | 1.56 | 1.56 | 1.56 | activity compared with ST 1103 ([2]; yeast-like strains, mostly Candida clinical isolates): higher activity than ST 1103, mostly against Candida clinical isolates; MIC [10, 25]: 3.12 µg/mL; MIC [10, 26]: 1.56 µg/mL; MIC [11]: 1.56 µg/mL; MIC [12, 27]: 1.56 µg/mL; MIC [12, 28]: 1.56 µg/mL; MIC [12, 29]: 1.56 µg/mL; MIC [12, 30]: 1.56 µg/mL; MIC [12, 31]: 1.56 µg/mL; MIC [12, 32]: 1.56 µg/mL; MIC [12, 33]: 1.56 µg/mL
